The source of these data is US20220048915A1 (SHANGHAI PHARMACEUTICALS HOLDING CO., LTD., priority 2018, published 2022).

Data set [1] is described as follows: Pharmacokinetic properties in rats. In kind it is in vivo, SD rats. As to the method:
Ten male SD rats, weighing 180-220 g (provided by Shanghai Xipuerbikai Laboratory Animal Co., Ltd, Certificate No.: 20130016008116). The rats were fasted for feed for 12-16 hours before the experiment but water was allowed.
Blood samples were collected from the fundus vein of rats before and at 2, 5, 15, 30, 60, 90, 120, 240, 360, 480, 600 and 1440 minutes after administration, respectively.
Blood samples were collected from the fundus vein of rats before and at 5, 15, 30, 60, 90, 120, 240, 360, 480, 600, 1440 minutes after administration respectively.
Blood samples were centrifuged at 8000 rpm for 5 minutes, and supernatant plasma was taken. To 50 μL of plasma samples was added 300 μL of acetonitrile containing internal standard (propranolol, 25 ng/mL) to precipitate the protein. After vortexing for 10 minutes and centrifuging at 6000 g and 4° C. for 10 minutes, the supernatant was taken and placed in a 96-well plate for determination of drug concentration in plasma by UPLC/MS-MS.

In the next data set the target is T1, p38γ (Homo sapiens, UniProt P53778).
T1 sequence (P53778 1-367): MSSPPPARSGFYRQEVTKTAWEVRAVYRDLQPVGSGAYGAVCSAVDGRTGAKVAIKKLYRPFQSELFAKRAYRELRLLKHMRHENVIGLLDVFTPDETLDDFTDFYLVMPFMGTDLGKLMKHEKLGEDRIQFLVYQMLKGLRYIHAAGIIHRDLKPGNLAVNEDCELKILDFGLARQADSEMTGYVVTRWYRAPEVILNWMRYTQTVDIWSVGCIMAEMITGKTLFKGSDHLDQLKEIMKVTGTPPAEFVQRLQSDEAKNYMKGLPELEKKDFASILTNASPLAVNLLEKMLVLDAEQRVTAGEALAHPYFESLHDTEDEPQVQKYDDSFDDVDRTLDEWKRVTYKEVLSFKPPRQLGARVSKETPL
The experiment in a line: In vitro inhibition of p38 kinase (LANCE Ultra TR-FRET). In kind it is biochemical. As to conditions: read-out: Kinase in vitro IC50(nM) p38γ. A general note: In TR-FRET formats the signal depends on donor and acceptor labels being close together.

Where [2] appears, read: male, SD, plasma, rat, po 6 mg/kg.

Molecules are shown by their SMILES.

For orientation: clearance means the volume of plasma or blood freed of the substance per unit of time. A low value points to a low capacity for elimination. By Cmax is commonly meant the highest concentration seen after dosing. Broadly, the MRT is a mean duration of stay, worked out from the concentration-time curve. As usually defined, the Tmax is the time at which the peak concentration occurs. Broadly, the IC50 is the concentration that gives 50% inhibition. `O=c1ncn2nc(Oc3ccc(F)cc3F)ccc2c1-c1c(Cl)cccc1Cl` [Compound I-4, 5-(2,6-dichlorophenyl)-2-(2,4-difluorophenoxy)-6H-pyrimido[1,6-b]pyridazin-6-one] had a clearance in data set [1] (male, SD, plasma, rat, iv 3 mg/kg) of 8.33 mL/min/kg. Besides, in data set [1] (male, SD, plasma, rat, iv 3 mg/kg, read-out: Vss (iv)), the Vd was 2.1 L/kg. Besides, in data set [1] (setting [2]), the Cmax turned out to be 994 ng/mL, the mean residence time (MRT) stood at 7.5 h and the Tmax came to 4.5 h. Further, the “Thalf (iv)” value in data set [1] (rat, iv 3 mg/kg) stood at 3.4 h. The same compound gave a BA in data set [1] (rat, po 6 mg/kg vs iv 3 mg/kg) of 68.9%. Besides, the “AUClast (po)” value in data set [1] (rat, po 6 mg/kg, 5-1440 minutes) is 8857.1 (h)*(ng/mL). Besides, the “clearance rate as fraction of that of the positive compound” value in data set [1] (rats) was 1/3. Moreover, the “absorption compared with the positive compound VX-745 at the same dose” value in data set [1] (rats, 6 mg/kg) is “significantly higher”. In addition, the “AUC relative to that of the positive compound” value in data set [1] (rats, 6 mg/kg, 5-1440 minutes) is 5.4 times. In addition, the IC50 at p38γ is over 3330 nM.
